{"source": "patent US10583129B2", "about": "“Use of EP4 receptor antagonists for the treatment of NASH-associated liver cancer” (AskAt Inc., priority 2016, dated 2020)", "key": {"[1]": {"test_system": "immune cells obtained from mouse livers", "settings": "liver, 30 mg/kg QD, vs vehicle", "method": "FIG. 5A depicts flow cytometry analysis of immune cells between vehicle-treated mice or Compound A-treated mice. The percentages of total CD11c^hi MHC class II (MHC II)^hi, CD11b^+ CD11c^hi MHC II^hi, or CD103^+ CD11c^hiMHC II^hi cells were analyzed by flow cytometry. Data are represented as means±SEM.\nFIG. 6A depicts the percentages of CD3^+ CD4^+ Foxp3^+, CD3^+ CD4^+ Foxp3^−, CD3^+ CD8^+ cells analyzed by flow cytometry. The ratio of CD8^+ T cells to CD4^+ Foxp3^+ Tregs was calculated. Data are represented as means±SEM. NS=not significant, *p<0.05, **p<0.01.\nIn FIG. 7A, the percentages of CD69^+ CD8^+ cells were analyzed by flow cytometry (*p<0.05, **p<0.01).\nIn FIG. 8A, the percentages of PD-1^+ CD8^+ cells were analyzed by flow cytometry (*p<0.05, **p<0.01).\nImmune cells were obtained from mouse livers and were subjected to measuring cytokine production and flow cytometric analysis.\nData were analyzed by unpaired t-test with Welch correction (two-side) or Man-Whitney test (two-side). P values less than 0.05 were considered significant. “NS” indicates not significant.\nThe impact of EP4 blockage on the prevalence and activation status of immune cells was assessed."}, "[2]": {"test_system": "obesity-induced NASH-associated mouse liver cancer model", "test": "DMBA plus high fat diet-induced NASH-associated mouse liver cancer model: tumor development and body weight", "assay_type": "in vivo", "method": "FIG. 1 depicts a mouse model timeline developed by treating with 7,12-dimethylbenz(a)anthracene (“DMBA”), and by feeding with a high fat diet (HFD). Compound A was administered to the mice every day from 19 weeks of age to 30 weeks of age and then euthanized (“Eut”).\nFIG. 2 is macroscopic photographs of the liver isolated from the vehicle-treated mice (left side) and Compound A-treated mice (right side). […] Compound A or a vehicle (n=5, each) were treated to the mice every day from 19 weeks of age to 30 weeks of age. Arrowheads identify hepatocellular carcinomas (HCCs).\nFIG. 3 depicts the average liver tumor numbers and the relative size distribution (classified as >6 mm, 2-6 mm, 2 mm). “NS” means not significant.\nFIG. 4 depicts the average body weight of the vehicle-treated group and Compound A-treated group at the age of 30 weeks. Data are represented as means±SD.\nC57/BL6 mice were purchased from CLEA Japan Inc. The TIr2^−/− mice (C57/BL6) were purchased from Oriental Yeast Co. Ltd.\nHematoxylin and eosin staining and immunofluorescence analysis were performed as previously described (Yoshimoto et al., Nature, 2013, 499:97-101).\nP values less than 0.05 were considered significant. “NS” indicates not significant.\nThis mouse model was developed by treating with DMBA, 7,12-dimethylbenz(a)anthracene, and by feeding a high fat diet (HFD) (Ootani 2013). […] In this experiment, Compound A 30 mg/kg QD was administered to the mice every day from 19 weeks of age to 30 weeks of age (FIG. 1). As a control, a separate group of mice were treated only with a vehicle and no active ingredient."}}}
{"smiles": "C[C@H](NC(=O)c1cc(Cl)cnc1Oc1cccc(F)c1)c1ccc(C(=O)O)cc1", "note": "[Compound A, 4-[(1S)-1-({[5-chloro-2-(3-fluorophenoxy)pyridin-3-yl]carbonyl}amino)ethyl]-benzoic acid]", "values": [{"measurement": "frequency of CD11b+ DCs", "setting": "[1]; FIG. 5A/5B", "value": "not changed"}, {"measurement": "frequency of CD11chi MHC class IIhi dendritic cells (DCs)", "setting": "[1]; FIG. 5A/5B", "value": "not changed"}, {"measurement": "population of CD103+ DCs", "setting": "[1]; FIG. 5A/5B", "value": "increased"}, {"measurement": "frequency of CD8+ T cells", "setting": "[1]; FIG. 6A", "value": "not changed"}, {"measurement": "ratio of CD8+ T cells to Tregs", "setting": "[1]; FIG. 6A", "value": "increased"}, {"measurement": "frequency of CD4+Foxp3+ regulatory T cells (Tregs)", "setting": "[1]; FIG. 6A/6B", "value": "significantly reduced"}, {"measurement": "frequency of CD4+Foxp3- T cells", "setting": "[1]; FIG. 6A/6B", "value": "but not CD4^+Foxp3^− T cells, was significantly reduced"}, {"measurement": "number of CD8+ T cells expressing the activation marker CD69", "setting": "[1]; FIG. 7A/7B", "value": "significantly increased"}, {"measurement": "number of CD8+ T cells expressing programmed cell death-1 (PD-1)", "setting": "[1]; FIG. 8A/8B", "value": "significantly reduced"}, {"measurement": "body weight", "setting": "[2]; 30 mg/kg QD, at the age of 30 weeks, FIG. 4", "value": "did not influence body weight"}, {"measurement": "Hepatocellular carcinoma (HCC) development", "setting": "[2]; Compound A 30 mg/kg QD from 19 to 30 weeks of age, compared to vehicle-treated mice", "value": "strongly reduced"}, {"measurement": "Tumor colony sized more than 6 mm", "setting": "[2]; after daily therapy from 19 to 30 weeks of age, FIG. 3", "value": "completely disappeared"}, {"measurement": "tumor number in the liver", "setting": "[2]; treated daily from 19 to 30 weeks of age, compared to vehicle-treated mice, FIG. 3", "value": "significantly inhibited"}]}
